Laboratory results reported in patent US10392369B2, “N-[(pyrimidinyloxy)propanyl]benzamides” (Boehringer Ingelheim International GmbH, priority 2016, dated 2019).
Read-outs that look alike come from different tables or passages of the source.

Experiments:
human Orexin 1 receptor = biological target: T1, human Orexin 1 receptor (Homo sapiens, UniProt O43613); experiment: Assay A: OX1R IP1 (in vitro OX1R potency); type: cell-based; details: for Kb: Table 3, read-out: Assay A OX1R Kb (Orexin A concentration); for OX1R selectivity over OX2R (selectivity ratio OX2R Kb/OX1R Kb) compared to Example 91 in WO2016/034882 / OX1R potency compared to Example 91 in WO2016/034882: in words, versus Example 91 in WO2016/034882
T1 construct: stably expressing the full-length human Orexin 1 receptor; expressed in transfected cells; host or cells: CHO-K1 (CHO-K1/hOx1), co-expressing the aequorin photoprotein
T1 sequence (O43613 1-425): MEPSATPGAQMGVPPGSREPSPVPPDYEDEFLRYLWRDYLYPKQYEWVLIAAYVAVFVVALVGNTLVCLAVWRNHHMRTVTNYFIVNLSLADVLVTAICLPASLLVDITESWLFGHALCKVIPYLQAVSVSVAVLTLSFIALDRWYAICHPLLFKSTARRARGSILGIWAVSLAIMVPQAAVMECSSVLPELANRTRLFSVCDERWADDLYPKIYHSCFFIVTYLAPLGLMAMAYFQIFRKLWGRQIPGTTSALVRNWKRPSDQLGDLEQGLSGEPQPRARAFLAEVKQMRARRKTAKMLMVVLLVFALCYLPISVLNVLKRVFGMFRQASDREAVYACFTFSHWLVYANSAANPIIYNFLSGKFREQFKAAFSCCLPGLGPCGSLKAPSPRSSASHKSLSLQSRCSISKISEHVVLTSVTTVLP
Source text: Activation of the orexin receptors expressed in cell lines results in an increase in intracellular IP3 concentration. IP1, a downstream metabolite of IP3, accumulates in cells following receptor activation and is stable in the presence of LiCl. Using Homogeneous Time-Resolved Fluorescence technology with Lumi4-Tb cryptate (commercially available from Cisbio Bioassay.) and a suitable fluorescence plate reader. […] This technique is used to characterize pharmacological modification of the orexin receptors.
A. In Vitro Testing of OX1R Potency: OX1R IP1
IP1 measurements are performed in CHO-K1 cells stably expressing the full-length human Orexin 1 receptor and the aequorin photoprotein. Cells are cultivated in Ham's nutrient mixture F12 medium with 10% fetal calf serum, in a 37° C., 95% humidity and 5% CO2 incubator. The CHO-K1/hOx1 cell mass is expanded to larger cell numbers. The cells are obtained as frozen cells in cryo-vials and stored until use at −150° C. […] In preparation for the assay, 24 hours before the assay, the cells are thawed at 37° C. and immediately diluted with cell culture medium. After centrifugation, the cell pellet is re-suspended in medium and then distributed into the assay plates with a density of 10000 cells/25 μL per well. The plates are incubated for one hour at room temperature to reduce edge effects before they are incubated for 24 hours at 37° C./5% CO2. Compounds are prepared by an 8-point serial dilution in DMSO and a final dilution step into assay buffer (HBSS with 20 mM HEPES, 0.1% BSA and 50 mM LiCl, pH 7.4) to ensure a final DMSO concentration of 1% in the assay.
(§1) On the day of the assay, cells in the plate are washed twice with 60 μL assay buffer (20 μL buffer remained in the wells after washing), followed by adding 5 μL per well of compounds diluted in assay buffer. After 15 minutes of incubation at room temperature 5 μL per well of Orexin A peptide (final concentration: 0.5 nM and/or 50 nM) dissolved in assay buffer is added to the assay plate. The assay plate is incubated for 60 minutes at 37° C. Then 5 μl per well of Anti-IP1-Cryptate Tb solution and 5 μl per well of IP1-d2 dilution are added and the plate is incubated for a further 60 minutes light protected at room temperature.
(§2) 8-point four parametric non-linear curve fitting and determination of IC50 values and Hill slopes is performed using a regular analysis software e.g. AssayExplorer (Accelrys). In order to establish an agonist concentration independent parameter, Kb values are calculated using the following equation: IC50/((2+(A/EC50)^n)^1/n−1) (with A=concentration agonist, EC50=EC50 agonist, n=Hill slope agonist).

human orexin 2 receptor = biological target: T2, human orexin 2 receptor (Homo sapiens, UniProt O43614); experiment: Assay B: OX2R IP1 (in vitro OX2R potency); type: cell-based; details: Table 3; 0.5 nM Orexin A
T2 construct: stably expressing the full-length human orexin 2 receptor; expressed in transfected cells; host or cells: CHO-K1 (CHO-K1/hOx2), co-expressing the aequorin photoprotein
T2 sequence (O43614 1-444): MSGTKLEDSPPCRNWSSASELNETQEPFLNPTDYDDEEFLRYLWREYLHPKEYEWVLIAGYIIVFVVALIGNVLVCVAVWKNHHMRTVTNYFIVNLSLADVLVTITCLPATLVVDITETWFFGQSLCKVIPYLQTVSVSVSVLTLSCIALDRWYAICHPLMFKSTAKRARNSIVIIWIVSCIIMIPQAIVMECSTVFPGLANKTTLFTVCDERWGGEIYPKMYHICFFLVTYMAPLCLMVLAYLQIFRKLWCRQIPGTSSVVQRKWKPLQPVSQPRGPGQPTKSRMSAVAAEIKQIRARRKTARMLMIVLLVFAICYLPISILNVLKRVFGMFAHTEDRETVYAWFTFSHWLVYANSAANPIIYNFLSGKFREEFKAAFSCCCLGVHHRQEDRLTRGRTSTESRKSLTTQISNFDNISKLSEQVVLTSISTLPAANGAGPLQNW
Source text: Activation of the orexin receptors expressed in cell lines results in an increase in intracellular IP3 concentration. IP1, a downstream metabolite of IP3, accumulates in cells following receptor activation and is stable in the presence of LiCl. Using Homogeneous Time-Resolved Fluorescence technology with Lumi4-Tb cryptate (commercially available from Cisbio Bioassay.) and a suitable fluorescence plate reader. […] Chem. Genomics 2009, 3, 22-32. This technique is used to characterize pharmacological modification of the orexin receptors.
B. In Vitro Testing of OX2R Potency: OX2R IP1
IP1 measurements are performed in CHO-K1 cells stably expressing the full-length human orexin 2 receptor and the aequorin photoprotein. Cells are cultivated in Ham's nutrient mixture F12 medium with 10% fetal calf serum, in a 37° C., 95% humidity and 5% CO2 incubator. The CHO-K1/hOx2 cell mass is expanded to larger cell numbers. The cells are obtained as frozen cells in cryo-vials and stored until use at −150° C. The viability of the cells after thawing is >90%. In preparation for the assay, 24 hours before the assay, the cells are thawed at 37° C. and immediately diluted with cell culture medium. After centrifugation, the cell pellet is resuspended in medium and then distributed into the assay plates with a density of 5000 cells/25 μL per well. The plates are incubated for one hour at room temperature to reduce edge effects before they are incubated for 24 hours at 37° C./5% CO2. Compounds are prepared by a 8-point serial dilution in DMSO and a final dilution step into assay buffer (HBSS with 20 mM HEPES, 0.1% BSA and 50 mM LiCl, pH 7.4) to ensure a final DMSO concentration of 1% in the assay.
as §1, with “concentration: 0.5 nM) dissolved” for “concentration: 0.5 nM and/or 50 nM) dissolved”, “are added to all well of the plate and the” for “are added and the”, “room temperature. The emission at 615 nm and 665 nm (Excitation wavelength: 320 nm) are measured using an EnVision reader (PerkinElmer). The ratio between the emission at 665 nm and 615 is calculated by the reader.” for “room temperature.”
as §2, with “of […]” for “of IC50”, “slope agonist) (see P. Leff, I. G. Dougall, Trends Pharmacol. Sci. 1993, 14(4), 110-112).” for “slope agonist).”

| SMILES | Kb (human Orexin 1 receptor; 0.5 nM Orexin A) [nM] | Kb (human Orexin 1 receptor; 50 nM Orexin A) [nM] | OX1R selectivity over OX2R (selectivity ratio OX2R Kb/OX1R Kb) compared to Example 91 in WO2016/034882 (human Orexin 1 receptor) | Kb (human orexin 2 receptor) [nM] | OX2R Kb/OX1R Kb (human Orexin 1 receptor) | OX1R potency compared to Example 91 in WO2016/034882 (human Orexin 1 receptor) |
| --- | --- | --- | --- | --- | --- | --- |
| CCN(C(=O)c1cccc(F)c1-n1nccn1)[C@@H](C)COc1ncc(C(F)(F)F)cn1 [Example 1] | 1.7 | 2.5 | more selective | 425 |  |  |
| CCN(C(=O)c1cc(C)c(C)cc1-n1nccn1)[C@@H](C)COc1ncc(C(F)(F)F)cn1 [Example 2] |  | 0.39 |  | 34 | 87 | increase in OX1R potency |
| CCN(C(=O)c1cc(C)ccc1-n1nccn1)[C@@H](C)COc1ncc(C(F)(F)F)cn1 [Example 5] | 1 | 1.1 | increase | 156 |  | increase |
| CCN(C(=O)c1ccc(F)cc1-n1nccn1)[C@@H](C)COc1ncc(C(F)(F)F)cn1 [Example 7] | 4.5 |  | more selective | 902 | 201 |  |
| CCN(C(=O)c1cc(C)ccc1-n1cccn1)[C@@H](C)COc1ncc(C(F)(F)F)cn1 [Example 8] | 2.2 |  | increase in OX1R selectivity | 502 | 228 |  |
| CCN(C(=O)c1ccc(C)c(C)c1-n1nccn1)[C@@H](C)COc1ncc(C(F)(F)F)cn1 [Example 10] |  | 0.65 | increase | 565 | 869 | increase |
| CCN(C(=O)c1cccc(C)c1-n1nccn1)[C@@H](C)COc1ncc(C(F)(F)F)cn1 [Example 11] | 1.3 | 1.4 | increase | 160 |  | increase |
| CCN(C(=O)c1ccc(C)cc1-n1nccn1)[C@@H](C)COc1ncc(C(F)(F)F)cn1 [Example 13] | 0.5 | 0.38 | increase | 142 |  | increase |
| CCN(C(=O)c1cc(OC)ccc1-n1nccn1)[C@@H](C)COc1ncc(C(F)(F)F)cn1 [Example 14] | 0.97 | 1.21 | increase | 253 |  | increase |
| CCN(C(=O)c1ccccc1-c1nc(C)no1)[C@@H](C)COc1ncc(C(F)(F)F)cn1 [Example 15] | 7.8 |  | increase in OX1R selectivity | 999 | 128 |  |
| CCN(C(=O)c1cccc(F)c1-c1nnc(C)o1)[C@@H](C)COc1ncc(C(F)(F)F)cn1 [Example 18] | 16 |  | increase in OX1R selectivity | 6640 | 415 |  |
| CCN(C(=O)c1ccc(C)cc1-c1nnc(C)o1)[C@@H](C)COc1ncc(C(F)(F)F)cn1 [Example 19] | 7.3 |  | increase in OX1R selectivity | 6640 | 909 |  |
| CCN(C(=O)c1cc(F)ccc1-n1nccn1)[C@@H](C)COc1ncc(C(F)(F)F)cn1 [Example 20] | 2.6 |  | more selective | 803 | 309 |  |
| CCN(C(=O)c1cccc(C)c1-c1nnc(C)o1)[C@@H](C)COc1ncc(C(F)(F)F)cn1 [Example 21] | 2 | 1.9 | increase in OX1R selectivity | 540 |  |  |
| CCN(C(=O)c1cc(F)cc(F)c1-n1nccn1)[C@@H](C)COc1ncc(C(F)(F)F)cn1 [Example 22] | 3.6 |  | more selective | 1460 | 406 |  |
| CCN(C(=O)c1ccccc1-c1noc(C)n1)[C@@H](C)COc1ncc(C(F)(F)F)cn1 [Example 23] | 2.1 |  | increase in OX1R selectivity | 435 | 207 |  |
| CCN(C(=O)c1ccccc1-n1nccn1)[C@@H](C)COc1ncc(C(F)(F)F)cn1 [Example 24] | 1.8 | 2.6 |  | 237 |  |  |
